Reference: PubChem BioAssay (NCI)
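Results reflect a 48-hour exposure of cells in 96-well plates to compound at five concentrations. TGI denotes the concentration required for complete inhibition of growth.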

Tests used:
Assay in all cases: inhibition of tumour cell growth, NCI panel, 48 h
[1] = system: UACC-62 melanoma
[2] = system: U251 CNS
[3] = system: HOP-62 NSCLC
[4] = system: RXF 393 renal
[5] = system: CAKI-1 renal
[6] = system: SNB-78 CNS
[7] = system: SK-MEL-28 melanoma
[8] = system: HL-60(TB) leukemia
[9] = system: NCI-H522 lung
[10] = system: IGROV1 ovarian
[11] = system: TK-10 renal
[12] = system: NCI-H23 lung
[13] = system: ACHN renal
[14] = system: SN12C renal
[15] = system: SW-620 colon
[16] = system: NCI-H226 lung
[17] = system: OVCAR-8 ovarian
[18] = system: SK-MEL-2 melanoma
[19] = system: XF 498 CNS
[20] = system: EKVX NSCLC
[21] = system: UO-31 renal
[22] = system: DMS 273 small cell lung
[23] = system: NCI-H460 lung
[24] = system: HOP-92 NSCLC
[25] = system: OVCAR-3 ovarian
[26] = system: A498 renal
[27] = system: HT29 colon
[28] = system: K-562 leukemia
[29] = system: KM20L2 colon
[30] = system: OVCAR-4 ovarian
[31] = system: UACC-257 melanoma
[32] = system: LOX IMVI melanoma
[33] = system: HCT-15 colon
[34] = system: SF-539 CNS
[35] = system: LXFL 529 NSCLC
[36] = system: SNB-19 CNS
[37] = system: KM12 colon
[38] = system: CCRF-CEM leukemia
[39] = system: SNB-75 CNS
[40] = system: OVCAR-5 ovarian
[41] = system: M14 melanoma
[42] = system: SK-MEL-5 melanoma
[43] = system: MOLT-4 leukemia
[44] = system: DLD-1 colon
[45] = system: SR leukemia
[46] = system: SF-268 CNS
[47] = system: RPMI-8226 leukemia
[48] = system: MALME-3M melanoma
[49] = system: DMS 114 small cell lung
[50] = system: SF-295 CNS
[51] = system: M19-MEL melanoma
[52] = system: 786-0 renal
[53] = system: COLO 205 colon
[54] = system: SK-OV-3 ovarian
[55] = system: HOP-18 NSCLC
[56] = system: HCC-2998 colon
[57] = system: RXF-631 renal
[58] = system: A549 NSCLC
[59] = system: HCT-116 colon

`O=c1[nH]c(=O)n(C2CC(O)C(CO)O2)cc1C(F)(C(F)(F)F)C(F)(F)F` (stereo unspecified) gave a TGI [1] of over 100 µM, a TGI [2] of over 100 µM and a TGI [3] of over 100 µM. The TGI [4] was over 100 µM, the TGI [5] was over 100 µM and the TGI [6] was over 100 µM. For the same compound, the TGI [7] was over 100 µM, the TGI [8] was over 100 µM and the TGI [9] was over 100 µM. The TGI [10] was over 100 µM, the TGI [11] was over 100 µM and the TGI [12] was over 100 µM. For the same compound, the TGI [13] was over 100 µM, the TGI [14] was over 100 µM and the TGI [15] was over 100 µM. It also gave a TGI [16] of over 100 µM, a TGI [17] of over 100 µM and a TGI [18] of over 100 µM. The TGI [19] was over 100 µM, the TGI [20] was over 100 µM and the TGI [21] was over 100 µM. For the same compound, the TGI [22] was over 100 µM, the TGI [23] was over 100 µM and the TGI [24] was over 100 µM. The TGI [25] was over 100 µM, the TGI [26] was over 100 µM and the TGI [27] was over 100 µM. The TGI [28] was over 100 µM, the TGI [29] was over 100 µM and the TGI [30] was over 100 µM. The TGI [31] was over 100 µM, the TGI [32] was over 100 µM and the TGI [33] was over 100 µM. For the same compound, the TGI [34] was over 100 µM, the TGI [35] was over 100 µM and the TGI [36] was over 100 µM. The TGI [37] was over 100 µM, the TGI [38] was over 100 µM and the TGI [39] was over 100 µM. The TGI [40] was over 100 µM, the TGI [41] was over 100 µM and the TGI [42] was over 100 µM. It also gave a TGI [43] of over 100 µM, a TGI [44] of over 100 µM and a TGI [45] of over 100 µM. The TGI [46] was over 100 µM, the TGI [47] was over 100 µM and the TGI [48] was over 100 µM. For the same compound, the TGI [49] was over 100 µM, the TGI [50] was over 100 µM and the TGI [51] was over 100 µM. For the same compound, the TGI [52] was over 100 µM, the TGI [53] was over 100 µM and the TGI [54] was over 100 µM. It also gave a TGI [55] of over 100 µM.
`COc1ccc(-c2nc3c(nc2-c2ccc(OC)cc2)C(N)=NS(=O)(=O)N3)cc1` was tested, and the TGI [1] was over 100 µM, the TGI [2] was over 100 µM and the TGI [3] was over 100 µM. For the same compound, the TGI [4] was over 100 µM, the TGI [5] was over 100 µM and the TGI [7] was over 100 µM. It also gave a TGI [8] of over 100 µM, a TGI [9] of over 100 µM and a TGI [10] of over 100 µM. It also gave a TGI [11] of over 100 µM, a TGI [12] of over 100 µM and a TGI [56] of over 100 µM. It also gave a TGI [13] of over 100 µM, a TGI [14] of over 100 µM and a TGI [15] of over 100 µM. It also gave a TGI [16] of over 100 µM, a TGI [17] of over 100 µM and a TGI [18] of over 100 µM. For the same compound, the TGI [20] was over 100 µM, the TGI [21] was over 100 µM and the TGI [22] was over 100 µM. It also gave a TGI [25] of over 100 µM, a TGI [26] of over 100 µM and a TGI [27] of over 100 µM. The TGI [28] was over 100 µM, the TGI [31] was over 100 µM and the TGI [32] was over 100 µM. It also gave a TGI [33] of over 100 µM, a TGI [34] of over 100 µM and a TGI [36] of over 100 µM. For the same compound, the TGI [37] was over 100 µM, the TGI [38] was over 100 µM and the TGI [39] was over 100 µM. For the same compound, the TGI [40] was over 100 µM, the TGI [57] was over 100 µM and the TGI [42] was over 100 µM. For the same compound, the TGI [43] was over 100 µM, the TGI [44] was over 100 µM and the TGI [46] was over 100 µM. For the same compound, the TGI [47] was over 100 µM, the TGI [48] was over 100 µM and the TGI [49] was over 100 µM. The TGI [50] was over 100 µM, the TGI [51] was over 100 µM and the TGI [58] was over 100 µM. The TGI [52] was over 100 µM, the TGI [53] was over 100 µM and the TGI [54] was over 100 µM.
`CN(C)CCC(CCN(C)C)=NO` showed a TGI [1] of over 100 µM, a TGI [2] of over 100 µM and a TGI [3] of over 100 µM. For the same compound, the TGI [4] was over 100 µM, the TGI [5] was over 100 µM and the TGI [6] was over 100 µM. It also gave a TGI [7] of over 100 µM, a TGI [8] of over 100 µM and a TGI [9] of over 100 µM. It also gave a TGI [10] of over 100 µM, a TGI [11] of over 100 µM and a TGI [12] of over 100 µM. The TGI [56] was over 100 µM, the TGI [13] was over 100 µM and the TGI [14] was over 100 µM. The TGI [15] was over 100 µM, the TGI [17] was over 100 µM and the TGI [18] was over 100 µM. It also gave a TGI [20] of over 100 µM, a TGI [21] of over 100 µM and a TGI [22] of over 100 µM. For the same compound, the TGI [23] was over 100 µM, the TGI [25] was over 100 µM and the TGI [26] was over 100 µM. The TGI [27] was over 100 µM, the TGI [28] was over 100 µM and the TGI [29] was over 100 µM. It also gave a TGI [30] of over 100 µM, a TGI [31] of over 100 µM and a TGI [59] of over 100 µM. For the same compound, the TGI [33] was over 100 µM, the TGI [34] was over 100 µM and the TGI [35] was over 100 µM. It also gave a TGI [36] of over 100 µM, a TGI [37] of over 100 µM and a TGI [38] of over 100 µM. The TGI [39] was over 100 µM, the TGI [41] was over 100 µM and the TGI [57] was over 100 µM. The TGI [42] was over 100 µM, the TGI [43] was over 100 µM and the TGI [44] was over 100 µM. It also gave a TGI [46] of over 100 µM, a TGI [47] of over 100 µM and a TGI [48] of over 100 µM. The TGI [49] was over 100 µM, the TGI [50] was over 100 µM and the TGI [51] was over 100 µM. For the same compound, the TGI [58] was over 100 µM, the TGI [52] was over 100 µM and the TGI [53] was over 100 µM. The TGI [54] was over 100 µM and the TGI [55] was over 100 µM.
`CCn1c2ccccc2c(=O)c2c(OC)ccc(OC)c21` gave a TGI [1] of over 100 µM, a TGI [2] of over 100 µM and a TGI [3] of over 100 µM. The TGI [4] was 80.1 µM, the TGI [5] was over 100 µM and the TGI [8] was over 82.4 µM. For the same compound, the TGI [9] was over 93.8 µM, the TGI [10] was over 100 µM and the TGI [12] was over 100 µM. It also gave a TGI [13] of over 100 µM, a TGI [14] of over 100 µM and a TGI [15] of over 100 µM. For the same compound, the TGI [16] was over 100 µM, the TGI [17] was over 100 µM and the TGI [18] was over 100 µM. For the same compound, the TGI [19] was over 100 µM, the TGI [20] was over 100 µM and the TGI [21] was over 89.9 µM. The TGI [22] was over 100 µM, the TGI [23] was over 100 µM and the TGI [24] was 98.7 µM. It also gave a TGI [25] of over 100 µM, a TGI [26] of over 100 µM and a TGI [27] of over 100 µM. The TGI [28] was over 100 µM, the TGI [29] was over 100 µM and the TGI [30] was over 100 µM. For the same compound, the TGI [31] was over 100 µM, the TGI [59] was over 100 µM and the TGI [32] was over 100 µM. The TGI [33] was over 100 µM, the TGI [34] was over 100 µM and the TGI [35] was over 100 µM. It also gave a TGI [36] of over 100 µM, a TGI [37] of over 100 µM and a TGI [38] of over 100 µM. It also gave a TGI [40] of over 100 µM, a TGI [41] of over 100 µM and a TGI [57] of over 100 µM. For the same compound, the TGI [43] was over 100 µM, the TGI [45] was over 100 µM and the TGI [46] was over 100 µM. It also gave a TGI [47] of over 100 µM, a TGI [48] of over 100 µM and a TGI [50] of over 100 µM. It also gave a TGI [51] of over 100 µM, a TGI [58] of over 100 µM and a TGI [52] of over 100 µM. The TGI [53] was over 100 µM and the TGI [54] was over 100 µM.
